Assay results published in US20260174875A1 (Novo Nordisk A/S, priority 2023, published 2026).
Where two headings read alike, the source gives them in different places.

Key:
[1] = molecular target: T1, human GLP-1 receptor (hGLP-1R) (Homo sapiens, UniProt P43220); test: GLP-1 receptor assay, method B (CRE-luciferase reporter, BHK cells, 384-well); format: cell-based
T1 construct: expressed in transfected cells

[2] = molecular target: T2, human GIP receptor (hGIPR) (Homo sapiens, UniProt P48546); test: GIP receptor assay, method B (CRE-luciferase reporter, BHK cells, 384-well); format: cell-based
T2 construct: expressed in transfected cells
T2 sequence (P48546 22-466): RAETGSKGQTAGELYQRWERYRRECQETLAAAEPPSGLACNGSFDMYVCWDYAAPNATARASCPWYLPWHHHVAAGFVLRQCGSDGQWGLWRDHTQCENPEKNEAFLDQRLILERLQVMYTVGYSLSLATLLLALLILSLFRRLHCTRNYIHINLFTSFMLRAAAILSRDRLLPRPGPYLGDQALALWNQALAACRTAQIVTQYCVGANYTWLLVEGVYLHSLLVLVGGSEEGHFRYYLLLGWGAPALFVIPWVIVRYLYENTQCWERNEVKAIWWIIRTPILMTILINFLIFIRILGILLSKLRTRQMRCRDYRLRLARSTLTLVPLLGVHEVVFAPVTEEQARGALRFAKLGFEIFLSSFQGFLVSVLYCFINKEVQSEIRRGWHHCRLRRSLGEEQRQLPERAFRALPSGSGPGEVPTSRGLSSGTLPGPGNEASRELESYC

[3] = molecular target: T3, human amylin receptor (hAMYR3) (Homo sapiens, UniProt O60896+P30988); test: Amylin receptor assay, method B (CRE-luciferase reporter, BHK cells); format: cell-based
T3 construct: host or cells: BHK cells (Hollex-1 line expressing hCTR(a) and CRE-Luc), further transfected with human RAMP3
T3 sequence (P30988 25-474): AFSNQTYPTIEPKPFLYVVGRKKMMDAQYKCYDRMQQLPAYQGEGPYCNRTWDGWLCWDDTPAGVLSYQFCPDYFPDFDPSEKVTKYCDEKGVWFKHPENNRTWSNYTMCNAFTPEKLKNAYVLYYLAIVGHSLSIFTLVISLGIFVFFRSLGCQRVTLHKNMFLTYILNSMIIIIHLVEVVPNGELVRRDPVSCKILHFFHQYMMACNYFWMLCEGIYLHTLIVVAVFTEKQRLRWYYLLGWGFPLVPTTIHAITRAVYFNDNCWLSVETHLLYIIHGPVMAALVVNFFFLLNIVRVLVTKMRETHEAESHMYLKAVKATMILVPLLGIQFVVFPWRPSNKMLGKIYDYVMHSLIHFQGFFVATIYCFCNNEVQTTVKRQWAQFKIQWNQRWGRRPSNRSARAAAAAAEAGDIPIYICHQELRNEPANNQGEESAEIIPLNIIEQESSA
T3 sequence (O60896 24-148): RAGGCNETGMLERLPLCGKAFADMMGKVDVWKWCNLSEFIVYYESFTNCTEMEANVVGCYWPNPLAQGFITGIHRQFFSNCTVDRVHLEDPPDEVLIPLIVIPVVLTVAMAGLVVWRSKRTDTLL
Procedure, shortened: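 BHK cells with CRE-luciferase, co-expressing hAMYR3 and transfected with human RAMP3, seeded overnight, then exposed 3 h at 37 °C to compound. Buffer: phenol red-free DMEM, 10 mM HEPES, 1% ovalbumin, with 0% or 1% (w/v) HSA. Luminescence read after 30 min with steadylite Plus.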

[4] = Chemical stability assessment in formulation (UPLC-UV-MS purity loss at 37° C.); format: physicochemical; details: 8 mM phosphate buffer pH 7.4, 1 mg/mL, 2 weeks
Procedure, shortened: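 Degradation tracked by UPLC-UV-MS (formic acid/acetonitrile gradient) on samples drawn over 2 weeks at 37° C. Solutions were made at a 1 mg/mL target in 8 mM phosphate, pH 7.4, kept in sealed vials and frozen after sampling.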

[5] = test system: Male Sprague Dawley (SD) rats; test: Efficacy testing on appetite: acute food intake in ad libitum fed normal weight rats; format: in vivo, rat; details: single dose 10 nmol/kg
Description: Male Sprague Dawley (SD) rats from Taconic, Denmark were used for the acute food intake experiments, wherein the principles of laboratory animal care were followed.
The rats arrived at least 10-14 days before the start of the experiment to allow acclimatization to experimental settings. During this period, the animals were handled (fixation by restrain in neck skin) at least 2 times. Immediately upon arrival, rats were changed to a reversed light cycle (dark from 11 am-11 pm) and were transferred to an automated food intake measuring system (HM2 system, MBRose; Faaborg, Denmark). […] To enable recording of individual food intake, rats were ID chipped. Three rats were housed in each cage. During the acclimatization period, in which the rats get used to the new light cycle and diet (LF 10% (D12450B), from Research Diets Inc.), the animals had free access to food and water. Since rats are normally active and consume most of their daily calories during the dark period, rats were dosed in the morning right before lights were turned off. Such a set-up results in the lowest data variation and highest test sensitivity. […] In each cage there were animals from three different treatment groups (to eliminate potential cage effects (e.g. cage malfunction) on primary readout: food intake). The rats were dosed once subcutaneously (s.c.) with the peptide of interest according to body weight (10 or 30 nmol/kg) in vehicle (0.5 ml/kg) using a NovoPen® (Novo Nordisk, Bagsvæed, Denmark).
The compounds of the invention were formulated (20 or 60 nmol/ml) in the following vehicle: 8 mM phosphate; 250 mM glycerol; 0.007% polysorbate 20, pH 7.4.
After dosing, the rats were returned to their home cages, where they continued to have ad libitum access to chow and water. The food consumption was recorded individually and continuously by the HM2 system from 0-72 h after test compound administration. Data obtained by the HM-2 system were stored in a HMBase SQL database (Firebird® relational database management system) and were processed by HM2Lab software (MBRose; Faaborg, Denmark) installed in an embedded computer. The feeding system is a highly sensitive system with a load resolution of 0.001 g.

[6] = hGLP-1R Potency, 1% HSA, EC50, methods B, in the presence of 1% HSA
[7] = method B, absence of HSA, read-out: hGLP-1R Potency, no HSA, EC50
[8] = hGIPR Potency, 1% HSA, EC50, methods B, in the presence of 1% HSA
[9] = method B, absence of HSA, read-out: hGIPR Potency, no HSA, EC50
[10] = hAMYR3 Potency, 1% HSA, EC50, methods B, in the presence of 1% HSA
[11] = method B, absence of HSA, read-out: hAMYR3 Potency, no HSA, EC50

T1 sequence (P43220 24-463): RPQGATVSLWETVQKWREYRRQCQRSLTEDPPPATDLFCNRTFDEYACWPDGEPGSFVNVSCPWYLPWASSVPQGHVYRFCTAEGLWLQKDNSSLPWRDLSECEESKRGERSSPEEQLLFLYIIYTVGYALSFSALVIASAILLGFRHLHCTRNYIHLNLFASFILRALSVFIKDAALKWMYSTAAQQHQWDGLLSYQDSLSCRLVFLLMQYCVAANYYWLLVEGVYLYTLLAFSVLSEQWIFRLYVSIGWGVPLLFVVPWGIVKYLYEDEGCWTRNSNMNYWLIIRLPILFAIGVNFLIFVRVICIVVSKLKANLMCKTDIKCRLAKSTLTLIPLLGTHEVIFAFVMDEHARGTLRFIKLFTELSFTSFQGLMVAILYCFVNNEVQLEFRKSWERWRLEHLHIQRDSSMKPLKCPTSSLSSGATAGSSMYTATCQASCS

CC[C@H](C)[C@H](NC(=O)[C@H](CCC(=O)O)NC(=O)[C@H](CCC(=O)O)NC(=O)[C@H](CC(C)C)NC(=O)[C@H](CC(C)C)NC(=O)[C@@H](NC(=O)[C@H](CO)NC(=O)[C@H](Cc1ccc(O)cc1)NC(=O)[C@H](CC(=O)O)NC(=O)[C@H](CO)NC(=O)[C@@H](NC(=O)[C@H](Cc1ccccc1)NC(=O)[C@@H](NC(=O)CNC(=O)[C@H](CCC(=O)O)NC(=O)C(C)(C)NC(=O)[C@@H](N)Cc1ccc(O)cc1)[C@@H](C)O)[C@@H](C)O)[C@@H](C)CC)C(=O)N[C@@H](C)C(=O)N[C@@H](C)C(=O)N[C@@H](CCCNC(=N)N)C(=O)N[C@@H](CCC(=O)O)C(=O)N[C@@H](Cc1ccccc1)C(=O)N[C@H](C(=O)N[C@@H](CCC(=O)O)C(=O)N[C@@H](Cc1c[nH]c2ccccc12)C(=O)N[C@@H](CC(C)C)C(=O)N[C@@H](CC(C)C)C(=O)N[C@@H](C)C(=O)NCC(=O)NCC(=O)N1CCC[C@H]1C(=O)N[C@@H](CO)C(=O)N[C@@H](CO)C(=O)N[C@@H](CCC(=O)O)C(=O)N[C@@H](C)C(=O)NCC(=O)N[C@@H](CCC(N)=O)C(=O)N[C@@H](C)C(=O)N1CCC[C@H]1C(=O)NCC(=O)N[C@@H](CCC(N)=O)C(=O)N[C@@H](C)C(=O)N1CCC[C@H]1C(=O)NCC(=O)N[C@@H](C)C(=O)N[C@@H](CO)C(=O)N[C@@H](Cc1c[nH]cn1)C(=O)N[C@@H](CC(C)C)C(=O)N[C@@H](CO)C(=O)N[C@H](C(=O)N[C@@H](C)C(=O)N[C@@H](CCC(N)=O)C(=O)N[C@H](C(=O)N[C@@H](CCC(N)=O)C(=O)N[C@@H](CCCNC(=N)N)C(=O)N[C@@H](CC(C)C)C(=O)N[C@@H](CO)C(=O)N[C@@H](C)C(=O)N[C@@H](CCC(=O)O)C(=O)N[C@@H](CC(C)C)C(=O)N[C@@H](Cc1c[nH]cn1)C(=O)N[C@@H](CCCCNC(=O)COCCOCCNC(=O)COCCOCCNC(=O)CC[C@H](NC(=O)CCCCCCCCCCCCCCCCCCC(=O)O)C(=O)O)C(=O)N[C@@H](CC(C)C)C(=O)N[C@@H](C)C(=O)N[C@H](C(=O)N[C@@H](CCC(=O)O)C(=O)N1CCC[C@H]1C(=O)N[C@@H](CCCNC(=N)N)C(=O)N[C@H](C(=O)N[C@@H](CCC(=O)O)C(=O)N[C@H](C(=O)NCC(=O)N[C@@H](CO)C(=O)NCC(=O)N[C@@H](CO)C(=O)N1CCC[C@H]1C(N)=O)[C@@H](C)O)[C@@H](C)O)[C@@H](C)O)[C@@H](C)O)[C@@H](C)O)[C@@H](C)CC [Compound 165]
EC50 [1, 6]: 0.0888 nM
EC50 [1, 7]: 0.0251 nM
EC50 [2, 8]: 0.00764 nM
EC50 [2, 9]: 0.00239 nM
EC50 [3, 10]: 0.537 nM
EC50 [3, 11]: 0.0094 nM
Purity loss per week at 37° C. [4]: 1.0%

CC[C@H](C)[C@H](NC(=O)[C@H](CCC(=O)O)NC(=O)[C@H](CCC(=O)O)NC(=O)[C@H](CC(C)C)NC(=O)[C@H](CC(C)C)NC(=O)[C@@H](NC(=O)[C@H](CO)NC(=O)[C@H](Cc1ccc(O)cc1)NC(=O)[C@H](CC(=O)O)NC(=O)[C@H](CO)NC(=O)[C@@H](NC(=O)[C@H](Cc1ccccc1)NC(=O)[C@@H](NC(=O)CNC(=O)[C@H](CCC(=O)O)NC(=O)C(C)(C)NC(=O)[C@@H](N)Cc1ccc(O)cc1)[C@@H](C)O)[C@@H](C)O)[C@@H](C)CC)C(=O)N[C@@H](C)C(=O)N[C@@H](C)C(=O)N[C@@H](CCCNC(=N)N)C(=O)N[C@@H](CCC(=O)O)C(=O)N[C@@H](Cc1ccccc1)C(=O)N[C@H](C(=O)N[C@@H](CCC(=O)O)C(=O)N[C@@H](Cc1c[nH]c2ccccc12)C(=O)N[C@@H](CC(C)C)C(=O)N[C@@H](CC(C)C)C(=O)N[C@@H](C)C(=O)NCC(=O)NCC(=O)N1CCC[C@H]1C(=O)N[C@@H](CO)C(=O)N[C@@H](CO)C(=O)NCC(=O)N[C@@H](C)C(=O)NCC(=O)N[C@@H](C)C(=O)N[C@@H](CO)C(=O)N[C@@H](CCC(=O)O)C(=O)N[C@@H](CC(C)C)C(=O)N[C@@H](CO)C(=O)N[C@H](C(=O)N[C@@H](C)C(=O)N[C@@H](CCC(N)=O)C(=O)N[C@H](C(=O)N[C@@H](CCC(N)=O)C(=O)N[C@@H](CCCNC(=N)N)C(=O)N[C@@H](CC(C)C)C(=O)N[C@@H](CO)C(=O)N[C@@H](C)C(=O)N[C@@H](CCC(=O)O)C(=O)N[C@@H](CC(C)C)C(=O)N[C@@H](Cc1c[nH]cn1)C(=O)N[C@@H](CCCCNC(=O)COCCOCCNC(=O)COCCOCCNC(=O)CC[C@H](NC(=O)CCCCCCCCCCCCCCCCCCC(=O)O)C(=O)O)C(=O)N[C@@H](CC(C)C)C(=O)N[C@@H](C)C(=O)N[C@H](C(=O)N[C@@H](CC(C)C)C(=O)N1CCC[C@H]1C(=O)N[C@@H](CCCNC(=N)N)C(=O)N[C@H](C(=O)N[C@@H](CCC(=O)O)C(=O)N[C@H](C(=O)NCC(=O)N[C@@H](CO)C(=O)NCC(=O)N[C@@H](CO)C(=O)N1CCC[C@H]1C(N)=O)[C@@H](C)O)[C@@H](C)O)[C@@H](C)O)[C@@H](C)O)[C@@H](C)O)[C@@H](C)CC [Compound 176]
EC50 [1, 6]: 0.178 nM
EC50 [1, 7]: 0.0299 nM
EC50 [2, 8]: 0.0238 nM
EC50 [2, 9]: 0.00366 nM
EC50 [3, 10]: 0.798 nM
EC50 [3, 11]: 0.0112 nM
Food intake (relative to vehicle) Day 1 ([5]; day 1 [0-24 hours]): −12%
Food intake (relative to vehicle) Day 2 ([5]; day 2 [24-48 hours]): 2%
Food intake (relative to vehicle) Day 3 ([5]; day 3 [48-72 hours]): 7%
